Measured values from patent publication US20090286713A9, “Collagen Receptor I-Domain Binding Modulators” (Biotie Therapies Corporation, priority 2005, published 2009).

Legend:
[1] = target: T1, α1 I-domain (Homo sapiens, UniProt P56199); test: Solid-phase binding assay, α1 I-domain binding to type I collagen; conditions: at 0.05 mM concentration; FIG. 9
T1 construct: corresponding to amino acids 123-338 of the whole α1 integrin; made in house; host or cells: E. coli BL21 (pGEX-4T-3)
T1 sequence (P56199 151-366): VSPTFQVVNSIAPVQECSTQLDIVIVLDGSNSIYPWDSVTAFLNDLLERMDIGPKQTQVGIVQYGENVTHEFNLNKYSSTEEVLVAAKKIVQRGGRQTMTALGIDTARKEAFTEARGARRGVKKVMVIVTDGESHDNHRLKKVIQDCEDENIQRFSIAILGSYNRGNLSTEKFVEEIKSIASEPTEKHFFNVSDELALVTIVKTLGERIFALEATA
Procedure: Solid-phase binding assay for α1-domains—The coating of a 96-well high binding microtiter plate (Nune) was done by exposure to 0.1 ml of PBS containing 5 μg/cm2 (15 μg/ml) collagens or 20 μg/ml triple-helical peptides overnight at +4° C. Blank wells were coated with 1:1 solution of 0.1 ml Delfia® Diluent II (Wallac) and PBS. Residual protein absorption sites on all wells were blocked with 1:1 solution of 0.1 ml Delfia® Diluent II (Wallac) and PBS. Recombinant proteins (αI-GST) were added to the coated wells at a desired concentration in Delfia® Assay Buffer and incubated for 1 h at room temperature. Europium-labelled anti-GST antibody (Wallac) was then added (typically 1:1000), and the mixture was incubated for 1 h at room temperature. All incubations mentioned above were done in the presence of 2 mM MgCl2. Delfia® enhancement solution (Wallac) was added to each well and the Europium signal was measured by time-resolved fluorometry (Victor2 multilabel counter, Wallac). At least three parallel wells were analyzed. In some cases some what modified solid-phase assay was used and it was performed according Tulla et al, 2001. It uses anti-GST and Europium-labelled protein G instead of Europium-labelled anti-GST antibody.
The tetracyclic Streptomyces compounds synthesised in Example 1, where screened for inhibition of collagen binding to α1 and α2 I-domains, using the α I-domain assay described in Example 4. […] L3015 could inhibit the binding of both α1I and α2 I-domains to type I and type IV collagen (FIG. 6B).
Furthermore α1I and α2 I-domain binding to collagen I in the presence of lovastatin was tested in the europium-labelled anti-GST assay described in Example 4. Lovastatin is an allosteric inhibitor of leukocyte integrin α I-domains (e.g. αL I-domain), and the binding site of lovastatin represents an optional binding site for possible modulators. […] These biological tests gave further evidence that collagen receptor α I-domains are inhibited by direct blocking of the MIDAS surface by tetracyclic polyketide.

[2] = target: T2, CHO cells expressing α2β1 integrin (Homo sapiens, UniProt P05556+P17301); test: Cell adhesion assay, CHO-α2 cells on collagen type I; assay type: cell-based, Chinese Hamster; conditions: CHO cells expressing α2β1; FIG. 10A; read-out: EC50 of cell adhesion to type I collagen
T2 sequence (P17301 1-1181): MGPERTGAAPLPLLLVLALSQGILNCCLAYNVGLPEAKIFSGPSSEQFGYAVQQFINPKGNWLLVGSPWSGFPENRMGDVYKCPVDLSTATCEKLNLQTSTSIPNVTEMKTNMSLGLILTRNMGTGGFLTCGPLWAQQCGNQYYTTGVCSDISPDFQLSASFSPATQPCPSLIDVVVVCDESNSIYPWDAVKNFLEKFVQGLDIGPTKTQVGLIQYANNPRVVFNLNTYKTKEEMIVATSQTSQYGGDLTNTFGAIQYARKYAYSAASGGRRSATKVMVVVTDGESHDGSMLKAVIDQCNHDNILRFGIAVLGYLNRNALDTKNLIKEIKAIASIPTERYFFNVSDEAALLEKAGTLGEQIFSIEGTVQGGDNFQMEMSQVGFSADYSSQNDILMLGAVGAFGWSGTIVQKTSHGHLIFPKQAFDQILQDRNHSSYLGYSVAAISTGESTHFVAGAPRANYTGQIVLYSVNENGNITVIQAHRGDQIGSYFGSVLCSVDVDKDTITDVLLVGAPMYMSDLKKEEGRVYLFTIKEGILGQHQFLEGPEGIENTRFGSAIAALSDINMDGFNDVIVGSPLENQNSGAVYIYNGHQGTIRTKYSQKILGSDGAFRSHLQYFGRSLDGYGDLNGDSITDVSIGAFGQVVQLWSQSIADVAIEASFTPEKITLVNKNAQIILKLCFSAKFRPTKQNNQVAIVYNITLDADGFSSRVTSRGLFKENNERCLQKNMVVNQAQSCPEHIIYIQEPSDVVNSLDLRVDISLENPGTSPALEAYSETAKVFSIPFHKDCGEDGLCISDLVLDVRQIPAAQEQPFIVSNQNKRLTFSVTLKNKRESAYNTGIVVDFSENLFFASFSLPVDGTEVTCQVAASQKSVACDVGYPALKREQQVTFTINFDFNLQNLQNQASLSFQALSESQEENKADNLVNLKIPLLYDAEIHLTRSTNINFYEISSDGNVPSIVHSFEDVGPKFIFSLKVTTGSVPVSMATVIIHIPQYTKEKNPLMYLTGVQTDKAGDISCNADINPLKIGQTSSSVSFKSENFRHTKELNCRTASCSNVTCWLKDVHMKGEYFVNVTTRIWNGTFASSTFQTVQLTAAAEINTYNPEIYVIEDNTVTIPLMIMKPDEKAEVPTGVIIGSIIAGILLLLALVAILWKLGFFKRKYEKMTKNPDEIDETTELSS
Procedure: (§1) Chinese Hamster Ovary (CHO) cell clone expressing wild type α2 integrin was used in cell adhesion assay. Cells were suspended in serum free medium containing 0.1 mg/ml cycloheximide (Sigma) and the compounds were preincubated with the cells prior to transfer to the wells. Cells (150000/well) were allowed to attach on collagen type I coated wells (in the presence and absence of inhibitor compounds) for 2 h at +37° C. and after that non-adherent cells were removed. Fresh serum free medium was added and the living cells were detected using a cell viability kit (Roche) according to the manufacturers protocol.
(§2) For this purpose CHO cells were transfected to express α2β1 integrin on their surface as their only collagen receptor.

[3] = target: T3, CHO cells expressing α2β1 integrin (Homo sapiens, UniProt P17301); test: as above; assay type: cell-based, Chinese Hamster; conditions: FIG. 10A, 10B
T3 sequence (P17301 1-1181): T2 sequence (P17301 1-1181)
Procedure: as §1, §2

inhibition of collagen I binding of α1I [1]: could inhibit
EC50 [2]: ~20 µM
inhibition of cell adhesion to collagen type I (in words) [3]: potent inhibitor
SMILES: COC(=O)c1c(C(C)C)cc(O)c2c(O)c3c(c(O)c12)C(=O)c1cccc(O)c1C3=O [Compound L3009, methyl 4,5,7,12-tetrahydroxy-2-methylethyl)-6,11-dioxonaphthacenecarboxylate]
